Among the data in ChEMBL document CHEMBL3243937, “Adriamycin analogues. 2. Synthesis of 13-deoxyanthracyclines” (1978) are ΔTm, IC50 and T/C values, retold here.

For assay [1], the system named is Calf thymus DNA. In words: Binding affinity to calf thymus DNA by spectral analysis. The format is nucleic-acid assay. The following applies: Bos taurus.
Assay [2] deals with L1210. Kind of assay: Inhibition of DNA synthesis in mouse L1210 cells compound preincubated for 3 hrs followed by [3H]thymidine addition measured after 1 hr by scintillation counting. The class given is functional.
Assay [3] relates to L1210. Kind of assay: Inhibition of RNA synthesis in mouse L1210 cells compound preincubated for 3 hrs followed by [3H]uridine addition measured after 1 hr by scintillation counting. The class given is functional.
Assay [4] deals with P388. Kind of assay: Antitumor activity against mouse P388 cells allografted in mouse assessed as increase in survival time at 12 mg/kg, ip qd administered starting from day 1 to day 9 post challenge relative to control. The class given is functional. The following applies: route intraperitoneal.
Assay [5] deals with P388. In words: Antitumor activity against mouse P388 cells allografted in mouse assessed as increase in survival time at 8 mg/kg, ip qd administered starting from day 1 to day 9 post challenge relative to control. The class given is functional. The following applies: route intraperitoneal.
The subject of assay [6] is P388. In words: Antitumor activity against mouse P388 cells allografted in mouse assessed as increase in survival time at 5.3 mg/kg, ip qd administered starting from day 1 to day 9 post challenge relative to control. The class given is functional. The following applies: route intraperitoneal.
Assay [7] concerns P388. Kind of assay: Antitumor activity against mouse P388 cells allografted in mouse assessed as increase in survival time at 4 mg/kg, ip qd administered starting from day 1 to day 9 post challenge relative to control. Conditions: route intraperitoneal. The format is functional.
Assay [8] relates to P388. In words: Antitumor activity against mouse P388 cells allografted in mouse assessed as increase in survival time at 3.5 mg/kg, ip qd administered starting from day 1 to day 9 post challenge relative to control. The class given is functional. Conditions: route intraperitoneal.
Assay [9] relates to P388. Kind of assay: Antitumor activity against mouse P388 cells allografted in mouse assessed as increase in survival time at 1.5 mg/kg, ip qd administered starting from day 1 to day 9 post challenge relative to control. The format is functional. Conditions: route intraperitoneal.
Assay [10] concerns P388. Kind of assay: Antitumor activity against mouse P388 cells allografted in mouse assessed as increase in survival time at 1.56 mg/kg, ip qd administered starting from day 1 to day 9 post challenge relative to control. The class given is functional. Conditions: route intraperitoneal.
The test system of assay [11] is P388. In words: Antitumor activity against mouse P388 cells allografted in mouse assessed as increase in survival time at 0.78 mg/kg, ip qd administered starting from day 1 to day 9 post challenge relative to control. The format is functional. The following applies: route intraperitoneal.
In assay [12] the test system is P388. In words: Antitumor activity against mouse P388 cells allografted in mouse assessed as increase in survival time at 0.39 mg/kg, ip qd administered starting from day 1 to day 9 post challenge relative to control. The format is functional. Conditions: route intraperitoneal.
Assay [13] concerns P388. Kind of assay: Antitumor activity against mouse P388 cells allografted in mouse assessed as increase in survival time at 3.13 mg/kg, ip qd administered starting from day 1 to day 9 post challenge relative to control. The format is functional. The following applies: route intraperitoneal.
Assay [14] relates to P388. In words: Antitumor activity against mouse P388 cells allografted in mouse assessed as increase in survival time at 6.25 mg/kg, ip qd administered starting from day 1 to day 9 post challenge relative to control. The class given is functional. The following applies: route intraperitoneal.
Assay [15] deals with P388. In words: Antitumor activity against mouse P388 cells allografted in mouse assessed as increase in survival time at 0.20 mg/kg, ip qd administered starting from day 1 to day 9 post challenge relative to control. The format is functional. Conditions: dose 0.2 mg/kg; route intraperitoneal.
For assay [16], the system named is P388. Kind of assay: Antitumor activity against mouse P388 cells allografted in mouse assessed as increase in survival time at 16 mg/kg, ip qd administered starting on day 5,9 and 13 post challenge relative to control. Conditions: route intraperitoneal. The class given is functional.
For assay [17], the system named is P388. Kind of assay: Antitumor activity against mouse P388 cells allografted in mouse assessed as increase in survival time at 8 mg/kg, ip qd administered starting on day 5,9 and 13 post challenge relative to control. The format is functional. Conditions: route intraperitoneal.
The test system of assay [18] is P388. Kind of assay: Antitumor activity against mouse P388 cells allografted in mouse assessed as increase in survival time at 4 mg/kg, ip qd administered starting on day 5,9 and 13 post challenge relative to control. The following applies: route intraperitoneal. The class given is functional.
Assay [19] relates to P388. Kind of assay: Antitumor activity against mouse P388 cells allografted in mouse assessed as increase in survival time at 2 mg/kg, ip qd administered starting on day 5,9 and 13 post challenge relative to control. The format is functional. The following applies: route intraperitoneal.
In assay [20] the test system is P388. In words: Antitumor activity against mouse P388 cells allografted in mouse assessed as increase in survival time at 1 mg/kg, ip qd administered starting on day 5,9 and 13 post challenge relative to control. The format is functional. Conditions: route intraperitoneal.

The term ΔTm denotes the change in melting temperature against a reference sample. The term IC50 denotes the concentration that gives 50% inhibition. The low end stands for inhibition by little substance, the high end for a need for much substance. Broadly, the T/C is the ratio of treated to control. Consider `CC[C@@]1(O)C[C@H](O[C@H]2C[C@H](N)[C@H](O)[C@H](C)O2)c2c(O)c3c(c(O)c2[C@H]1C(=O)OC)C(=O)c1cccc(O)c1C3=O.Cl`, for which the ΔTm in [1] amounted to 7.6 °C. Moreover, the IC50 in assay [2] worked out at 5600 nM; in assay [3], 2600 nM. Moreover, the T/C in assay [4] was 141%; in assay [5], 140%; in assay [6], 139%; in [7], 132%; in [8], 130%; in assay [9], 127%.
As to `CC[C@]1(O)Cc2c(O)c3c(c(O)c2[C@@H](O[C@H]2C[C@H](N)[C@H](O)[C@H](C)O2)C1)C(=O)c1c(OC)cccc1C3=O`, the thermal shift (ΔTm) in [1] came to 50 °C. Besides, the figures for the 50% inhibitory concentration (IC50) in assay [2] and in assay [3] were 1300 nM and 840 nM, respectively. The T/C in [10] stood at 160%; in assay [11] it was 134%; in [12], 140%; in assay [13], 160%.
On to `COc1cccc2c1C(=O)c1c(O)c3c(c(O)c1C2=O)C[C@@](O)(CCO)C[C@@H]3O[C@H]1C[C@H](N)[C@H](O)[C@H](C)O1` [13-DEOXYDOXORUBICIN], for which the ΔTm in assay [1] was found to be 6.15 °C. The half-inhibitory concentration (IC50) stood at 1800 nM in [2] and 1100 nM in [3]. For the same compound, the T/C worked out at 156% in assay [10]; 161% in assay [11]; 140% in assay [12]; 153% in assay [14]; 164% in [13].
Turning to `COc1cccc2c1C(=O)c1c(O)c3c(c(O)c1C2=O)C[C@@](O)(C(C)=O)C[C@@H]3O[C@H]1C[C@H](N)[C@H](O)[C@H](C)O1` [DAUNORUBICIN], the IC50 in assay [2] came to 660 nM; in assay [3] it was 330 nM. Also, the T/C in assay [10] came out at 148%; in assay [11], 167%; in assay [12], 153%; in assay [15], 144%; in [16], 127%; in assay [17], 134%. In addition, the T/C in assay [18] was 131%.
Turning to `COc1cccc2c1C(=O)c1c(O)c3c(c(O)c1C2=O)C[C@@](O)(C(=O)CO)C[C@@H]3O[C@H]1C[C@H](N)[C@H](O)[C@H](C)O1` [DOXORUBICIN], in assay [1], the ΔTm came to 13.4 °C. In addition, the IC50 turned out to be 1500 nM in assay [2] and 580 nM in [3]. In addition, the T/C in assay [10] is given as 176%; in [11] it was 197%; in assay [12], 174%; in [15], 160%; in [16] it was 130%; in assay [17] it was 157%. Further, the T/C amounted to 142% in assay [18], 133% in [19] and 133% in [20].
